Measured values published in patent publication EP0256472A2, “Cosmetic agent for application to skin” (priority 1986, dated 1988).

What was measured:
[1] = system: Fibroblasts originating in the human skin; test: Promotion of growth of dermal fibroblasts (Test Example 1); assay type: cell-based; settings: 10⁻⁵ M, 1% serum, 14 days; words of the text only, Table 2 is an image
Procedure: The action of promoting the growth of dermal fibroblasts by the coenzymes and nucleic acid related substances used in the present invention was evaluated in accordance with the following method:
Fibroblasts originating in the human skin were cultured in media to which the above-described compounds had been added and to which no such compound was added under serum controlled conditions and the effect of the compounds on proliferation was examined. That is, the above-described fibroblasts were cultured in a Co₂-incubator at 37°C for 24 hours in Eagle's MEM medium (pH 7.6) to which were added 10% of fetal bovine serum and the like. The medium was then changed to a medium in which the serum was lowered 1% and in which the fibroblasts were then cultured for 24 hours. The medium was then changed into a medium containing 10⁻⁵ M of a substance for examination and 1% of serum in which the culture was continued.
The medium was then changed on alternate days. The results obtained are shown in Table 2 in which the number of cells for each case is shown by a relative value obtained by assuming the number of cells after 14 days to be 100 in the case of the control in which no substance for examination was added.

collagen = test: Promotion of collagen production in skin-excised rats: weight of granulation and hydroxyproline (Test Example 2); assay type: in vivo, Wistar 6-week old male rats; settings: for increases in the weights of regenerated granulation and the amounts of hydroxyproline (in words): summary of Table 3
Procedure: The action of promoting the production of collagen by the coenzymes and the nucleic acid related substances used in the present invention was evaluated in accordance with the following method:
Each rat was killed on the seventh day, and then the circular portion was cut out and the weight of granulation (derma) and the amount of hydroxyproline, which is a specific amino acid constituting collagen, were measured as an index of the amount of reproduced collagen.

collagen elastin fibril = test: Tensile strength of healed linear skin cut in rats (Test Example 3); assay type: in vivo, Wistar 6-week old male rats; settings: for increases in the tensile strength of collagen elastin fibril (in words): summary of Table 4
Procedure: The effect of the coenzymes and the nucleic acid related substances against the strength of collagen elastin fibril was conducted as follows:
After hair had been removed from the back of each rat in a group comprising eight Wistar 6-week old male rats, the back of the rat was cut along the median line of the back by a scalpel to make a linear cut portion having a length of 4 cm, and the cut portion was sewed up at 3 positions at equally spaced intervals by Michel's clips. The Michel's clips were removed 3 days after the sewing. 0.1 ml of each of physiological saline containing 50 mM of the above described compound or a physiological saline containing no compound (control) was repeatedly applied to the cut portion once a day for 7 days. Each rat was killed on the eighth day, and the skin of the cut portion was cut out to prepare three samples per rat, each sample being a strip of skin having a width of 1 cm crossing the cutting line.
The tensile strength of the sample up to breakage point was measured by a tensiometer to determine the strength of reproduced collagen elastin fibril. In the Table, values of the strength are shown as relative values obtained on the assumption that those of the control were 100.
In the above test, a relative value of the strength of more than 110 is considered to show an increase in the tensile strength.

Acute oral toxicity = assay type: in vivo; settings: rat
[2] = guinea pig, in vivo
[3] = guinea pig, in vivo; remark: listed apart in the source
[4] = rabbit, in vivo
[5] = guinea pig, in vivo; remark: listed apart in the source
[6] = guinea pig, in vivo; remark: listed apart in the source
[7] = in vivo
[8] = Half face use test of cosmetic agents on women: elasticity, complexion, roughness, wrinkling of the skin; assay type: in vivo, human; settings: Example 9: toilet water as in Example 7 with this compound in place of N²,O^2ʹ-DBcGMP Na
From the text: Two groups each of which comprised 20 statistically-equivalent women (30 to 50 years old) were selected and the toilet water samples I and II were applied separately to the right and left face portions, respectively, of each woman in one group and the toilet water samples I and III were respectively applied to same portions of each woman in the other group by a half face method twice a day (in the morning and at night) for 3 months. The degree of improvement in terms of elasticity, complexion, roughness, and wrinkling of the skin were then examined. […]
The effectiveness of thus-prepared toilet waters was actually measured by the same method as set forth in Example 1.
The toilet water samples of the present invention and of the comparison were applied separately to the right and left face portions, respectively, of each woman in a group comprising 20 women (30 to 50 years old) by a half face method twice a day (in the morning and at night) for 3 months. The degree of improvement in terms of elasticity, complexion, roughness, and wrinkles of the skin was then examined. […]

[9] = Colour tone of the skin of colored guinea pigs, color-difference meter (Example 10); assay type: in vivo, guinea pig; settings: cream with 0.5% of active principle, twice a day for 14 days; larger value = whiter skin
Procedure: After hair had been removed from the back of each colored guinea pig (3 guinea pigs in a group), a cream with which 0.5% of an active principle was mixed (cGMP or its derivatives in place of FAD 2Na used in Example 2) and a cream containing no active principle were respectively applied to the back of each guinea pig twice a day (in the morning and at night) every day for 14 days. The difference in colour tone of the skin before and after the application was measured by a color-difference meter.
The numerical values shown in the table are L-values (lightness) and a larger value indicates a whiter skin.

[10] = Lightness of discolored spot or freckled portion of human skin, color-difference meter (Example 11); assay type: in vivo; settings: Example 12: cream as in Example 11 with this compound instead of N²,O^2ʹ-DBcGMP Na and cGMP Na
Procedure: Creams having the compositions shown in Table 23 were prepared and then applied to a discolored spot or freckled portion of the skin of each of 6 men and women in the morning and at night twice a day for 3 months. The lightness of the discolored spot portions was measured by a color-difference meter before and after the application.
The numerical values obtained before and after the application shown in the table are L-values (lightness).

[11] = Safety tests in the same way as in Example 1 (acute toxicity, skin irritation, skin sensitization); assay type: in vivo
From the text: The above-described coenzymes and nucleic acid related substances used in the present invention are widely present in organisms and are thus thought to be extremely safe.

[12] = relative value, control = 100, 0.1 ml of 50 mM in 10% ethanol twice a day for 6 days, seventh day
[13] = tested in the same way as in Example 1

## 5ʹ-deoxyadenosylcobalamine [CoB12]
[1]
  growth promotion functions for human fibroblasts: particularly excellent effects
collagen; [12]
  Amount of hydroxyproline: 167
  Weight of granulation: 181
collagen
  increases in the weights of regenerated granulation and the amounts of hydroxyproline (in words): particularly excellent effects
Collagen elastin fibril; relative value, control = 100, more than 110 is considered an increase, 0.1 ml of 50 mM in physiological saline once a day for 7 days, eighth day
  Tensile strength: 122
Collagen elastin fibril
  increases in the tensile strength of collagen elastin fibril (in words): particularly excellent effect
Acute oral toxicity
  LD50 value: LD50 value; 5 g/kg or more
[2]
  Primary skin irritation: 5%; non-irritant
[3]
  Phototoxicity: negative
[4]
  Ocular-mucous membrane irritation: 5%, non-irritant
[5]
  Skin sensitization: negative
[6]
  Photosensitization: negative
[7]
  Human patch test: 5%; non-irritant

## Nc1nc2c(nc(Br)n2[C@@H]2O[C@@H]3COP(=O)(O)O[C@H]3[C@H]2O)c(=O)[nH]1 [8-BrcGMP Na]
[8]
  effect of preventing the aging of the skin: excellent effects similar to those of Example 7
[9]
  L-values (lightness) After application: 45.4
[10]
  properties of the creams (lightness of discolored spots): results similar to those in Example 11

## Nc1nc2c(nc(Sc3ccc(Cl)cc3)n2[C@@H]2O[C@@H]3COP(=O)(O)O[C@H]3[C@H]2O)c(=O)[nH]1 [8-ClPhScGMP Na]
[9]
  L-values (lightness) After application: 45.3

## CC(C)(COP(=O)(O)OP(=O)(O)OC[C@H]1O[C@@H](n2cnc3c(N)ncnc32)[C@H](O)[C@@H]1OP(=O)(O)O)[C@@H](O)C(=O)NCCC(=O)NCCS [CoA 3Na, coenzyme A]
[1]
  growth promotion functions for human fibroblasts: particularly excellent effects
collagen
  increases in the weights of regenerated granulation and the amounts of hydroxyproline (in words): particularly excellent effects
Collagen elastin fibril
  increases in the tensile strength of collagen elastin fibril (in words): particularly excellent effect
[11]; in vivo
  safety with respect to skin irritation, etc.: no problem was observed

## Cc1cc2nc3c(=O)[nH]c(=O)nc-3n(C[C@H](O)[C@H](O)[C@H](O)COP(=O)(O)OP(=O)(O)OC[C@H]3O[C@@H](n4cnc5c(N)ncnc54)[C@H](O)[C@@H]3O)c2cc1C [FAD 2Na, Flavin adenine dinucleotide]
[11]; [13]
  safety with respect to skin irritation, etc.: no problem was observed

## NC(=O)c1ccc[n+]([C@@H]2O[C@H](COP(=O)([O-])OP(=O)(O)OC[C@H]3O[C@@H](n4cnc5c(N)ncnc54)[C@H](O)[C@@H]3O)[C@@H](O)[C@H]2O)c1 [NAD Na, β-nicotinamide adenine dinucleotide]
[11]; [13]
  safety with respect to skin irritation, etc.: no problem was observed

## NC(=O)c1ccc[n+]([C@@H]2O[C@H](COP(=O)([O-])OP(=O)(O)OC[C@H]3O[C@@H](n4cnc5c(N)ncnc54)[C@H](OP(=O)(O)O)[C@@H]3O)[C@@H](O)[C@H]2O)c1 [NADP Na, β-nicotinamide adenine dinucleotide phosphate]
[11]; [13]
  safety with respect to skin irritation, etc.: no problem was observed

## CCCC(=O)Nc1nc2c(ncn2[C@@H]2O[C@@H]3COP(=O)(O)O[C@H]3[C@H]2OC(=O)CCC)c(=O)[nH]1 [N^2,O^2'-DBcGMP Na]
[11]; [13]
  safety with respect to skin irritation, etc.: problems such as skin irritating property were not found
[9]
  L-values (lightness) After application: 45.5

## O=C(O)CCC(=O)Nc1nc2c(ncn2[C@@H]2O[C@@H]3COP(=O)(O)O[C@H]3[C@H]2OC(=O)CCC(=O)O)c(=O)[nH]1 [N^2,O^2'-DScGMP Na]
[8]
  effect of preventing the aging of the skin: excellent effects similar to those of Example 7
[9]
  L-values (lightness) After application: 45.3

## CCCC(=O)Nc1nc2c(ncn2[C@@H]2O[C@@H]3COP(=O)(O)O[C@H]3[C@H]2O)c(=O)[nH]1 [N^2-MBcGMP Na]
[8]
  effect of preventing the aging of the skin: excellent effects similar to those of Example 7
[9]
  L-values (lightness) After application: 44.6
[10]
  properties of the creams (lightness of discolored spots): results similar to those in Example 11

## O=C(O)CCC(=O)Nc1nc2c(ncn2[C@@H]2O[C@@H]3COP(=O)(O)O[C@H]3[C@H]2O)c(=O)[nH]1 [N^2-MScGMP Na]
[9]
  L-values (lightness) After application: 44.6

## CCCC(=O)OC1C2OP(=O)(O)OCC2OC1n1cnc2c(=O)[nH]c(N)nc21 (stereo not drawn) [O^2'-MBcGMP Na]
[8]
  effect of preventing the aging of the skin: excellent effects similar to those of Example 7
[9]
  L-values (lightness) After application: 43.7
[10]
  properties of the creams (lightness of discolored spots): results similar to those in Example 11

## Nc1nc2c(ncn2[C@@H]2O[C@@H]3COP(=O)(O)O[C@H]3[C@H]2OC(=O)CCC(=O)O)c(=O)[nH]1 [O^2'-MScGMP Na]
[9]
  L-values (lightness) After application: 43.8

## O=C(O)c1cc(C(=O)O)c2c(n1)C(=O)C(=O)c1cc(C(=O)O)[nH]c1-2 [PQQ 2Na, Pyrrolo-quinoline quinone]
[11]; in vivo
  safety with respect to skin irritation, etc.: no problem was observed

## Nc1nc2c(ncn2[C@@H]2O[C@@H]3COP(=O)(O)O[C@H]3[C@H]2O)c(=O)[nH]1 [cGMP Na, guanosine 3ʹ,5ʹ-cyclic monophosphate]
[11]; [13]
  safety with respect to skin irritation, etc.: no problem
[9]
  L-values (lightness) After application: 43.0
